Measurements reported in the supplement of paper PMC10307832.

Experiments:
Test in all cases: relative viability (nuclei count vs DMSO), 5 days (fraction); higher = more cells survive
[1] = tested on: UMC-11
Summary of the method: (§1)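 The day after seeding in 1536-well plates, lung cancer cell lines were treated by pin tool with a single drug, or with a fixed anchor-drug dose together with five library-drug doses (not always all listed) in √10 steps. After 5 days, a combined fix-and-stain solution (final 0.05% Triton X-100, 1% formaldehyde, 1 ug/ml Hoechst) was added. Nuclei counted on 4× images gave relative viability as treated counts over vehicle counts, reported as the median of duplicate plates.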

[2] = tested on: COR-L 105
Summary of the method: as §1

[3] = tested on: NCI-H1792
Summary of the method: as §1

[4] = tested on: NCI-H1944
Summary of the method: as §1

[5] = tested on: SK-LU-1
Summary of the method: as §1

[6] = tested on: NCI-H2009
Summary of the method: as §1

[7] = tested on: LC-2-ad
Summary of the method: as §1

[8] = tested on: A-427
Summary of the method: as §1

[9] = tested on: LU99A
Summary of the method: as §1

[10] = tested on: NCI-H2085
Summary of the method: as §1

[11] = tested on: SW 900
Summary of the method: as §1

[12] = tested on: NCI-H1666
Summary of the method: as §1

[13] = tested on: HCC-78
Summary of the method: as §1

[14] = tested on: LXF-289
Summary of the method: as §1

[15] = tested on: NCI-H1915
Summary of the method: as §1

[16] = tested on: NCI-H460
Summary of the method: as §1

[17] = tested on: NCI-H1793
Summary of the method: as §1

[18] = tested on: HOP-62
Summary of the method: as §1

[19] = tested on: NCI-H2170
Summary of the method: as §1

[20] = tested on: HCC-366
Summary of the method: as §1

[21] = tested on: EPLC-272H
Summary of the method: as §1

[22] = tested on: NCI-H358
Summary of the method: as §1

CC(=O)O[C@@]12CO[C@@H]1C[C@H](O)[C@@]1(C)C(=O)[C@H](O)C3=C(C)[C@@H](OC(=O)[C@H](O)[C@@H](NC(=O)OC(C)(C)C)c4ccccc4)C[C@@](O)([C@@H](OC(=O)c4ccccc4)[C@H]21)C3(C)C [Docetaxel] + Cc1nc(Nc2ncc(C(=O)Nc3c(C)cccc3Cl)s2)cc(N2CCN(CCO)CC2)n1 [Dasatinib] (partner 0.075 µM)
relative viability ([1]; first compound 0.0002 µM): 0.429 | relative viability ([1]; first compound 0.000632 µM): 0.42 | relative viability ([1]; first compound 0.002 µM): 0.264 | relative viability ([1]; first compound 0.006325 µM): 0.21 | relative viability ([1]; first compound 0.02 µM): 0.171 | relative viability ([2]; first compound 0.0002 µM): 0.322 | relative viability ([2]; first compound 0.000632 µM): 0.288 | relative viability ([2]; first compound 0.002 µM): 0.224 | relative viability ([2]; first compound 0.006325 µM): 0.249 | relative viability ([2]; first compound 0.02 µM): 0.202 | relative viability ([3]; first compound 0.0002 µM): 0.796 | relative viability ([3]; first compound 0.000632 µM): 0.707 | relative viability ([3]; first compound 0.002 µM): 0.648 | relative viability ([3]; first compound 0.006325 µM): 0.482 | relative viability ([3]; first compound 0.02 µM): 0.22 | relative viability ([4]; first compound 0.0002 µM): 0.216 | relative viability ([4]; first compound 0.000632 µM): 0.228 | relative viability ([4]; first compound 0.002 µM): 0.204 | relative viability ([4]; first compound 0.006325 µM): 0.178 | relative viability ([4]; first compound 0.02 µM): 0.105 | relative viability ([5]; first compound 0.0002 µM): 0.175 | relative viability ([5]; first compound 0.000632 µM): 0.156 | relative viability ([5]; first compound 0.006325 µM): 0.122 | relative viability ([5]; first compound 0.02 µM): 0.132 | relative viability ([6]; first compound 0.0002 µM): 0.261 | relative viability ([6]; first compound 0.000632 µM): 0.299 | relative viability ([6]; first compound 0.002 µM): 0.273 | relative viability ([6]; first compound 0.006325 µM): 0.204 | relative viability ([6]; first compound 0.02 µM): 0.121 | relative viability ([7]; first compound 0.0002 µM): 0.362 | relative viability ([7]; first compound 0.000632 µM): 0.38 | relative viability ([7]; first compound 0.002 µM): 0.28 | relative viability ([7]; first compound 0.006325 µM): 0.207 | relative viability ([8]; first compound 0.0002 µM): 0.721 | relative viability ([8]; first compound 0.000632 µM): 0.642 | relative viability ([8]; first compound 0.002 µM): 0.445 | relative viability ([8]; first compound 0.006325 µM): 0.154 | relative viability ([8]; first compound 0.02 µM): 0.141 | relative viability ([9]; first compound 0.0002 µM): 0.588 | relative viability ([9]; first compound 0.000632 µM): 0.372 | relative viability ([9]; first compound 0.002 µM): 0.285 | relative viability ([9]; first compound 0.006325 µM): 0.277 | relative viability ([10]; first compound 0.0002 µM): 0.229 | relative viability ([10]; first compound 0.000632 µM): 0.268 | relative viability ([10]; first compound 0.002 µM): 0.217 | relative viability ([10]; first compound 0.006325 µM): 0.24 | relative viability ([10]; first compound 0.02 µM): 0.176 | relative viability ([11]; first compound 0.0002 µM): 0.612 | relative viability ([11]; first compound 0.000632 µM): 0.218 | relative viability ([11]; first compound 0.002 µM): 0.171 | relative viability ([11]; first compound 0.006325 µM): 0.221 | relative viability ([11]; first compound 0.02 µM): 0.127 | relative viability ([12]; first compound 0.0002 µM): 0.684 | relative viability ([12]; first compound 0.000632 µM): 0.594 | relative viability ([12]; first compound 0.002 µM): 0.465 | relative viability ([12]; first compound 0.006325 µM): 0.414 | relative viability ([12]; first compound 0.02 µM): 0.284 | relative viability ([13]; first compound 0.0002 µM): 0.352 | relative viability ([13]; first compound 0.000632 µM): 0.3 | relative viability ([13]; first compound 0.002 µM): 0.235 | relative viability ([13]; first compound 0.006325 µM): 0.248 | relative viability ([13]; first compound 0.02 µM): 0.3 | relative viability ([14]; first compound 0.0002 µM): 0.181 | relative viability ([14]; first compound 0.000632 µM): 0.154 | relative viability ([14]; first compound 0.002 µM): 0.0677 | relative viability ([14]; first compound 0.006325 µM): 0.0536 | relative viability ([14]; first compound 0.02 µM): 0.0314 | relative viability ([15]; first compound 0.0002 µM): 0.304 | relative viability ([15]; first compound 0.000632 µM): 0.331 | relative viability ([15]; first compound 0.002 µM): 0.228 | relative viability ([15]; first compound 0.006325 µM): 0.153 | relative viability ([15]; first compound 0.02 µM): 0.0717 | relative viability ([16]; first compound 0.0002 µM): 0.457 | relative viability ([16]; first compound 0.000632 µM): 0.44 | relative viability ([16]; first compound 0.002 µM): 0.089 | relative viability ([16]; first compound 0.006325 µM): 0.0266 | relative viability ([16]; first compound 0.02 µM): 0.0131 | relative viability ([17]; first compound 0.0002 µM): 0.351 | relative viability ([17]; first compound 0.000632 µM): 0.345 | relative viability ([17]; first compound 0.002 µM): 0.279 | relative viability ([17]; first compound 0.006325 µM): 0.175 | relative viability ([17]; first compound 0.02 µM): 0.16 | relative viability ([18]; first compound 0.0002 µM): 0.56 | relative viability ([18]; first compound 0.000632 µM): 0.58 | relative viability ([18]; first compound 0.002 µM): 0.309 | relative viability ([18]; first compound 0.02 µM): 0.155 | relative viability ([19]; first compound 0.0002 µM): 0.6 | relative viability ([19]; first compound 0.000632 µM): 0.574 | relative viability ([19]; first compound 0.002 µM): 0.428 | relative viability ([19]; first compound 0.006325 µM): 0.141 | relative viability ([19]; first compound 0.02 µM): 0.14 | relative viability ([20]; first compound 0.0002 µM): 0.569 | relative viability ([20]; first compound 0.000632 µM): 0.255 | relative viability ([20]; first compound 0.002 µM): 0.119 | relative viability ([20]; first compound 0.006325 µM): 0.0384 | relative viability ([20]; first compound 0.02 µM): 0.0228 | relative viability ([21]; first compound 0.0002 µM): 0.358 | relative viability ([21]; first compound 0.000632 µM): 0.235 | relative viability ([21]; first compound 0.002 µM): 0.142 | relative viability ([21]; first compound 0.006325 µM): 0.107 | relative viability ([21]; first compound 0.02 µM): 0.0615 | relative viability ([22]; first compound 0.0002 µM): 0.159 | relative viability ([22]; first compound 0.000632 µM): 0.179 | relative viability ([22]; first compound 0.006325 µM): 0.111 | relative viability ([22]; first compound 0.02 µM): 0.0699
